# Experiments:
# [1] = target: T1, Avi-KRAS G12C (2-169) GTP/RAF1 RBD-3xFLAG (51-131) (Homo sapiens, UniProt P01116, G12C); test: Raf1-KRAS G12C-GTP disruption HTRF assay (Biological Example 3); format: binding; conditions: KRAS G12C, GTP-loaded
# T1 construct: Avi-KRAS G12C (2-169)
# Method: (§1) Biological Example 3: Disrupting RAS-Effector Binding HTRF Assay
# (§2) A protein:protein interaction (PPI) Homogeneous Time Resolved Fluorescence (HTRF) assay was used to determine the effectiveness of compounds in disrupting KRAS protein and effector (RAF1) binding.
# (§3) The HTRF assay used the following reagents and proteins: (i) 50 nM Avi-KRAS G12D (2-169) GTP/RAF1 RBD-3xFLAG (51-131): (ii) 50 nM Avi-KRAS G12C (2-169) GTP/RAF1 RBD-3xFLAG (51-131): (iii) 50 nM Avi-KRAS G12V (2-169) GTP/RAF1 RBD-3xFLAG (51-131); (iv) 50 nM Avi-KRAS WT (2-169) GTP/RAF1 RBD-3xFLAG (51-131); and (v) 75 nM 3xFLAG-RAF1 RBD (51-131)-Avi. The assay buffer included: 50 mM Tris pH 7.5 (Invitrogen, 15567-027), 100 mM NaCl (Sigma, S5150-IL), 5 mM MgCl2 (Sigma, 63069), 0.1% BSA (Sigma, A7030), 0.01% Tween 20 (Sigma, P7949), 10% DMSO (Cell Signaling, 12611). The bead buffer included: 50 mM Tris pH 7.5 (Invitrogen, 15567-027), 0.01% Tween 20 (Sigma, P7949). An assay volume of 20 μL was used in a 384 well plate-low volume format. Compound titration: 30-0.005 μM, 3x dilution series.
# (§4) The HTRF assay employed the following protocol:
# (§5) Compounds were dispensed in assay plate (384-well, Grenier Bio-One #784075) using Echo (model 555) with dose response settings: 200 nL final volume, titration from 30 μM as a 10-point dilution series. Proteins and HTRF reagents were mixed and dispensed onto plates, 20 μL per well, and then incubated for 1 h at room temperature, with 700 rpm shaking.
# (§6) Plates were analyzed on an Envision plate reader using the following setting: Excitation 320 nm, Bandwidth 75 nm; Emission 615 nm, Bandwidth 85 nm; Gain 100%; Flashes 100; Lag 60 μs. Data was reported as percentage of activity, with DMSO as 100%. Data was plotted and analyzed using Prism 8.
# (§7) The biochemical Raf1-KRAS G12D/G12V/G12C/WT-GTP disruption assay IC50 of selected compounds described herein are shown in Table 12.
# [2] = target: T2, Avi-KRAS G12D (2-169) GTP/RAF1 RBD-3xFLAG (51-131) (Homo sapiens, UniProt P01116, G12D); test: Raf1-KRAS G12D-GTP disruption HTRF assay (Biological Example 3); format: binding; conditions: KRAS G12D, GTP-loaded
# T2 construct: Avi-KRAS G12D (2-169)
# T2 sequence (P01116 2-169 isoform P01116-2 G12D): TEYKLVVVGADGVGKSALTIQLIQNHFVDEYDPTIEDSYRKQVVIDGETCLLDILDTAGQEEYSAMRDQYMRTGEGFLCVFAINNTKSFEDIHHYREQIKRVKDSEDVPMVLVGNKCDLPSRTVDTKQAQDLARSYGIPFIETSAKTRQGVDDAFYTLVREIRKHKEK
# Method: as §1, §2, §3, §4, §5, §6, §7
# GP2d cells (KRAS G12D) = test: Cell-based pERK HTRF assay in GP2d cell (Biological Example 2); conditions: GP2d (KRAS G12D) cells
# How it was run: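 GP2d (KRAS G12D) cells were plated in DMEM/10% FBS and treated the next day for 60 min with compounds. Dosing used 9-point half-log series starting at 1 μM or 100 nM in 0.25% DMSO. Lysates were read by HTRF pERK (d2/Eu cryptate antibodies) after 4–24 h at room temperature, with excitation at 320 nm and emission at 615 nm.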
# SW620 cells (KRAS G12V) = test: Cell-based pERK HTRF assay in SW620 cell (Biological Example 4)
# How it was run: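 SW620 (KRAS G12V) cells seeded at 3×10^4/well in RPMI, 10% FBS, then treated next day for 4 h with a 9-point half-log series from 1 μM top (0.25% DMSO). Lysates analyzed for pERK by HTRF (Eu cryptate/d2 antibodies, 4–24 h at room temperature), excitation 320 nm, emission 615 nm.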
# [3] = target: T3, Avi-KRAS G12V (2-169) GTP/RAF1 RBD-3xFLAG (51-131) (Homo sapiens, UniProt P01116, G12V); test: Raf1-KRAS G12V-GTP disruption HTRF assay (Biological Example 3); format: binding; conditions: KRAS G12V, GTP-loaded
# T3 construct: Avi-KRAS G12V (2-169)
# T3 sequence (P01116 2-169 isoform P01116-2 G12V): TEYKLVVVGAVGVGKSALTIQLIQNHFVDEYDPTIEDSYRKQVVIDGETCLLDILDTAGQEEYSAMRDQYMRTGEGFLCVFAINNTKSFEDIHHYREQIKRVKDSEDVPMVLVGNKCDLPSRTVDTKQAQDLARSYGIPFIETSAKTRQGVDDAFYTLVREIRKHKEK
# Method: as §1, §2, §3, §4, §5, §6, §7
# [4] = target: T4, Avi-KRAS WT (2-169) GTP/RAF1 RBD-3xFLAG (51-131) (Homo sapiens, UniProt P01116); test: Raf1-KRAS WT-GTP disruption HTRF assay (Biological Example 3); format: binding; conditions: KRAS WT, GTP-loaded
# T4 construct: Avi-KRAS WT (2-169)
# T4 sequence (P01116 2-169 isoform P01116-2): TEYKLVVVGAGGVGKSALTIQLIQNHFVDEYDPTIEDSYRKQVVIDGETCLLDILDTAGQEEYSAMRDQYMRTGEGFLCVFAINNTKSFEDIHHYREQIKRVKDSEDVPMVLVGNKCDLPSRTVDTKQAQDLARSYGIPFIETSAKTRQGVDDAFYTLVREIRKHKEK
# Method: as §1, §2, §3, §4, §5, §6, §7
# [5] = target: T5, Avi-KRAS G12D (1-169) GppNHp/RAF1 RBD-3xFLAG (52-151) (Homo sapiens, UniProt P01116, G12D); test: Raf1-KRAS G12D-GppNHP disruption HTRF assay (Biological Example 1); format: binding; conditions: KRAS G12D, GppNHp-loaded; class symbols
# T5 construct: Avi-KRAS G12D (1-169)
# T5 sequence (P01116 1-169 isoform P01116-2 G12D): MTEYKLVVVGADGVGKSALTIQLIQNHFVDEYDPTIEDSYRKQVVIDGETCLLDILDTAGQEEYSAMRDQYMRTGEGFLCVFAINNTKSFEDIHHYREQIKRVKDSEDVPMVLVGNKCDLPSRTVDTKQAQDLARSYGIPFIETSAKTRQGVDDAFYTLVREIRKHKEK
# How it was run: (§8)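 Read-out is HTRF signal of the KRAS–RAF1 RBD complex, reported as percentage of activity relative to DMSO (100%). Protein mix and detection reagents each incubated 1 h at room temperature with 700 rpm shaking. Buffer: 50 mM Tris pH 7.5, 100 mM NaCl, 5 mM MgCl2, 0.1% BSA, 0.01% Tween, 10% DMSO.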
# [6] = target: T6, Avi-KRAS WT (1-169) GppNHp/RAF1 RBD-3xFLAG (52-151) (Homo sapiens, UniProt P01116); test: Raf1-KRAS WT-GppNHP disruption HTRF assay (Biological Example 1); format: binding; conditions: KRAS WT, GppNHp-loaded; class symbols
# T6 construct: Avi-KRAS WT (1-169)
# T6 sequence (P01116 1-169 isoform P01116-2): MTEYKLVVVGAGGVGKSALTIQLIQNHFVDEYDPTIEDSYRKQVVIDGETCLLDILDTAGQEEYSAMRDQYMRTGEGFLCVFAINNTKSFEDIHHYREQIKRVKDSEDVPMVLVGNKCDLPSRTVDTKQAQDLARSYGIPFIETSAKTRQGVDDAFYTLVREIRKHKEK
# How it was run: as §8
# [7] = target: T7, Avi-KRAS G12R (1-169) GppNHp/RAF1 RBD-3xFLAG (52-151) (Homo sapiens, UniProt P01116, G12R); test: Raf1-KRAS G12R-GppNHP disruption HTRF assay (Biological Example 1); format: binding; conditions: KRAS G12R, GppNHp-loaded; class symbols
# T7 construct: Avi-KRAS G12R (1-169)
# T7 sequence (P01116 1-169 isoform P01116-2 G12R): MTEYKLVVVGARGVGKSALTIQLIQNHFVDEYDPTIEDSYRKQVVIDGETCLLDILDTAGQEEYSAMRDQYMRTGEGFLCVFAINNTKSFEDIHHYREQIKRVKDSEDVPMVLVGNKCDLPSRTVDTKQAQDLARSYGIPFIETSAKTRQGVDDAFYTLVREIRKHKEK
# How it was run: as §8
# [8] = target: T8, Avi-KRAS G12V (1-169) GppNHp/RAF1 RBD-3xFLAG (52-151) (Homo sapiens, UniProt P01116, G12V); test: Raf1-KRAS G12V-GppNHP disruption HTRF assay (Biological Example 1); format: binding; conditions: KRAS G12V, GppNHp-loaded; class symbols
# T8 construct: Avi-KRAS G12V (1-169)
# T8 sequence (P01116 1-169 isoform P01116-2 G12V): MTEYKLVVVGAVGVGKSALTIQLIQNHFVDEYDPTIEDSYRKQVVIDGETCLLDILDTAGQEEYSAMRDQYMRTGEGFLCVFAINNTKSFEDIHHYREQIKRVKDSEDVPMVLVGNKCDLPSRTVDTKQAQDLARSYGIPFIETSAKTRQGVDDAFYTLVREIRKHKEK
# How it was run: as §8
# [9] = Homo sapiens, SW-620, SW620 (KRAS G12V) cells
# T1 sequence (P01116 2-169 isoform P01116-2 G12C): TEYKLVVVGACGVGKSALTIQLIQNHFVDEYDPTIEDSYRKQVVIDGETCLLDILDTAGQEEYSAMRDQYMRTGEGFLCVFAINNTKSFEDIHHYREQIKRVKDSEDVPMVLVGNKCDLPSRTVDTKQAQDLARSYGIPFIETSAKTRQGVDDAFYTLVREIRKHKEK
IC50 [1] [nM],IC50 [2] [nM],IC50 (GP2d cells (KRAS G12D); GP2d) [nM],IC50 (SW620 cells (KRAS G12V); [9]) [nM],IC50 [3] [nM],IC50 [4] [nM],IC50 (GP2d cells (KRAS G12D)) [nM],IC50 (SW620 cells (KRAS G12V); SW620 (KRAS G12V) cells) [nM],IC50 [5] [nM],"IC50 (GP2d cells (KRAS G12D); GP2d, pERK HTRF, class symbols) [nM]",IC50 [6] [nM],IC50 [7] [nM],"IC50 (SW620 cells (KRAS G12V); Homo sapiens, SW-620, SW620 (KRAS G12V) cells, pERK HTRF, class symbols) [nM]",IC50 [8] [nM],Structure (SMILES)
≤ 100,≤ 100,< 100,< 100,≤ 100,100 to 1000,–,–,–,–,–,–,–,–,CCN(c1nc(OC[C@@]23CCCN2C[C@H](F)C3)nc2c(F)c(-c3ccc(F)c4sc(N)c(C#N)c34)c(C(F)(F)F)cc12)C1CCN(C(=O)C2CC2)C1 (stereo partly shown) [Compound 903]
100 to 1000,≤ 100,< 100,< 100,100 to 1000,100 to 1000,–,–,–,–,–,–,–,–,"CCN(c1nc(OC[C@@]23CCCN2C[C@H](F)C3)nc2c(F)c(-c3ccc(F)c4sc(N)c(C#N)c34)c(C(F)(F)F)cc12)[C@H]1CCN(C(=O)C2COC2)[C@@H]1C (atropisomer, axis not shown) [Compound 833]"
1000 to 10000,100 to 1000,< 100,< 100,100 to 1000,1000 to 10000,–,–,–,–,–,–,–,–,"CN(Cc1cncnc1)c1nc(OC[C@@]23CCCN2C[C@H](F)C3)nc2c(F)c(-c3ccc(F)c4sc(N)c(C#N)c34)c(C(F)(F)F)cc12 (atropisomer, axis not shown) [Compound 898]"
1000 to 10000,1000 to 10000,< 100,< 100,1000 to 10000,1000 to 10000,–,–,–,–,–,–,–,–,"CCN(c1nc(OC[C@@]23CCCN2C[C@H](F)C3)nc2c(F)c(-c3ccc(F)c4sc(N)c(C#N)c34)c(C(F)(F)F)cc12)[C@H]1CCN(C(=O)N2CC(F)C2)[C@H]1C (atropisomer, axis not shown) [Compound 818]"
100 to 1000,100 to 1000,–,–,100 to 1000,1000 to 10000,< 100,< 100,–,–,–,–,–,–,CCN(c1nc(OCC23CCCN2CC(F)C3)nc2c(F)c(-c3ccc(F)c4sc(N)c(C#N)c34)c(C(F)(F)F)cc12)C1CCN(C(=O)c2cnc(C#N)s2)C1 (stereo not shown) [Compound 960]
100 to 1000,100 to 1000,–,–,100 to 1000,100 to 1000,–,–,–,–,–,–,–,–,"CCN(c1nc(OC[C@@]23CCCN2C[C@H](F)C3)nc2c(F)c(-c3ccc(F)c4sc(N)c(C#N)c34)c(C(F)(F)F)cc12)[C@H]1C[C@H](C(=O)N(C)C)C1 (atropisomer, axis not shown) [Compound 950]"
–,–,–,–,–,–,–,–,< 100,< 100,< 100,< 100,< 100,< 100,"CCN(c1nc(OC[C@@]23CCCN2C[C@H](F)C3)nc2c(F)c(-c3ccc(F)c4sc(N)c(C#N)c34)c(C(F)(F)F)cc12)[C@H]1CCN(C(=O)[C@@H]2CCCO2)C1 (atropisomer, axis not shown) [Compound 745]"

# From patent publication US20260042764A1, “COMPOSITIONS AND METHODS FOR INHIBITION OF KRAS” (TheRas, Inc., priority 2022, published 2026)
